# From patent US20080064665A1, “Combination approaches to cancer treatment” (priority 2006, published 2008)
# Where “and” joins values, the source holds several entries; their conditions need not be identical. Identical values can stand only once.
# Experiments:
# [1] = system: SiHa cervical cancer xenografts; assay: Excision assay of SiHa xenografts (clonogenic log cell kill); type: in vivo, CD-1 Fox^nu mice; settings: SN 28343 91.2 mg/kg, SN 29303 375 mg/kg
# Method: As for Part 1 except for except where noted below.
# Excess compound was discarded.
# Date, body weights (used to adjust injection volume), tumor diameter, unique identifier (tail markings), body weight, and volume to be injected were recorded. Animals were dosed with the test articles i.p. following a defined treatment schedule:
# 18 hours after treatment the mice were culled by cervical dislocation and tumors removed by dissection, in a sterile laminar flow hood. Whole tumor weights were recorded. Tumors were minced using scissors or scalpels until a fine minceate was obtained, and up to 500 mg of minceate was transferred into a pre-tiered Falcon®14 ml test tube containing a sterile magnetic spin bar and re-weighed.
# Samples were then incubated in 37° C. water bath for 30 min over a magnetic stirrer.
# After incubation any undissociated material was allowed to settle for 1 minute. […] Pellets were re-suspended in 10 ml of medium. Cells/ml was determined using an electronic particle counter (Beckman Coulter Electronics, Z2 model). Samples were then diluted to 1×10^5cells/ml and 6-fold serial dilutions made down to 4.6×10^2cells/ml.
# 1 ml of each sample was plated in triplicate for each dilution into appropriately labelled Falcon® P-60 tissue culture dishes containing 4 ml of αMEM+10% FCS+PS.
# Where possible, all plates were counted; those colonies counted=larger than 50 cells, confirmed with the light microscope. TMTC was recorded for those plates where there were too many colonies to count.
# The criteria for selecting the best dilution to use for calculating plating efficiency (PE):
# Higher dilution count>100 colonies (average); lower dilution 10-100 colonies, use PE from the dilution with fewer colonies.
# Higher dilution count >100; lower dilution count <20, use average data from both.
# Higher dilution count <100; lower dilution count <20, use PE from the dilution with more colonies.
# Higher dilution count <100; lower dilution count >20, use average data from both. Note: For the 10^5 dilution, take as the “lower limit” colony count a total count of 30, (sum of all replicates).
# [2] = system: A2780 human ovarian cancer xenografts; assay: Growth delay and survival of A2780 xenografts, PR-104 and docetaxel; type: in vivo, CD-1 nude mice; settings: A2780 xenograft
# Method: (§1) End-point: After treatment, tumor size and body weights were measured regularly and mice were culled either when the average diameter of the tumor reached 15 mm (end-point), the tumor ulcerated or when the body weight change reached −15%. Experiment was ended and all remaining mice culled 120 days after treatment.
# (§2) Analysis: End-points will be expressed as TTE50, Median RTV^4 and plotted in Kaplan-Meier Plots and analysed by Log Rank P statistical test.
# [3] = system: 22RV1 androgen-resistant human prostate cancer xenograft; assay: Growth delay and survival of 22RV1 xenograft, PR-104 and docetaxel; type: in vivo, CD-1 nude mice
# Method: as §1, §2
# [4] = PR-104 652 mg/kg, docetaxel 73 mg/kg, q2w×2
# [5] = 22RV1 xenograft, PR-104 652 mg/kg, docetaxel 73 mg/kg, q2w×2
smiles,measurement,setting,value
"CC(=O)O[C@@]12CO[C@@H]1C[C@H](O)[C@@]1(C)C(=O)[C@H](O)C3=C(C)[C@@H](OC(=O)[C@H](O)[C@@H](NC(=O)OC(C)(C)C)c4ccccc4)C[C@@](O)([C@@H](OC(=O)c4ccccc4)[C@H]21)C3(C)C [Docetaxel, (2R,3S)-N-carboxy-3-phenylisoserine, N-tert-butyl ester, 13-ester with 5β-20-epoxy-1,2α,4,7β,10β,13α-hexahydroxytax-11-en-9-one 4-acetate 2-benzoate, trihydrate, reference compound]",cell kill versus controls in excision assay (in words),"[1]; SiHa human cervical tumor xenograft, docetaxel 65 mg/kg i.p.",inactive
same,Log Cell Kill versus controls (Mean ± SEM),"[1]; SiHa tumors excised 18 hours after treatment, docetaxel 65 mg/kg, i.p.",0.451
same,Weight Loss Nadir (%),"[2]; CD-1 nude mice, PR-104 652 mg/kg, docetaxel 73 mg/kg, i.p., q2w×2, trihydrate",−8.7±1.5%
same,LTC (long term control),[2]; 120 day experiment,0
same,Median RTV^4,[2]; [4],12 days
same,TTE50,[2]; [4],14 days
same,TGD (relative gain in median RTV^4 versus control),"[2]; PR-104 652 mg/kg, docetaxel 73 mg/kg, q2w×2, trihydrate",167% and 166.7%
same,improvement in median tumor growth delay,[2]; versus control,7.5 days
same,Gain TTE50 (improvement in median survival),[2]; versus control (6 days),8 days
same,activity against 22RV1 xenograft (in words),[3]; 22RV1 prostate xenograft model,moderately active
same,Weight Loss Nadir (%),"[3]; 22RV1 xenograft, CD-1 nude mice, PR-104 652 mg/kg, docetaxel 73 mg/kg, i.p., q2w×2, trihydrate",−3.5±0.8%
same,LTC (long term control),"[3]; 22RV1 xenograft, 120 day experiment",0
same,Median RTV^4,[3]; [5],20 days
same,TGD (relative gain in median RTV^4 versus control; TGI in text),[3]; [5],122%
same,TTE50,[3]; [5],24 days
same,median tumor growth delay,"[3]; 22RV1 xenograft, versus control",11 days
same,Gain TTE50 (improvement in median survival),"[3]; 22RV1 xenograft, versus control (9.5 days)",14.5 days
